Entries after “also recorded” stand apart in the source; their conditions may differ. Bridges are numbered along the chain shown (N, C = ends). Where no end group is shown, it is not given here. [ ]: non-standard residue; d: D form.
Each substance was assayed on recombinant gp120 from HIV-1 strain IIIB (assay: Direct ELISA: binding of gp120 to His-tagged peptides on Ni-chelate plates). Details: peptide coated at 4 µM on Ni-chelate plates; gp120(IIIB) 0.25 µg/mL, 2 h; absorbance at 492 nm, blank-corrected; Ar relative to CD4-M1 = 1; at least twice, each in duplicate.
Procedure: Antibody buffer: Phosphate buffer pH 7.2 containing 1% BSA and 0.1% Tween 20. The wells of 96-well Ni-Chelate plates from Thermo Scientific were coated overnight at 4 °C with peptide solution (100 µL, 4 µM in coupling buffer). After unspecific binding had been blocked with a blocking buffer (1 h at room temperature, gentle agitation), the plates were washed twice. Plates were then incubated for 2 h with 100 µL/well gp120(IIIB) from ImmunoDiagnostics at 0.25 µg/mL (Figure 3, left), or in serial dilutions starting at 2 µg/mL (Figure 3, right) in sample buffer, and washed four times. Following incubation with 100 µL/well sheep-anti-HIV-1-gp120 (D7324) from Aalto Bio Reagents (1:5000 in antibody buffer) for 1 h at room temperature, plates were washed four times with washing buffer, incubated for 1 h at room temperature with 100 µL/well rabbit-anti-sheep-IgG peroxidase conjugate from Dianova (diluted 1:5000 with antibody buffer), and washed four times with washing buffer. Plates were developed with 100 µL/well substrate solution (1 mg/mL OPD in 0.03% H2O2/H2O) in the dark (approx. 20 min), and the reaction was stopped by addition of 2 M sulfuric acid (50 µL/well). Absorbances (A) were read at 492 nm by using a multichannel photometer (Infinite F200 from Tecan).
Relative Affinities (Ar) were calculated according to the following formula:
Ar = (Apeptide – Ablank) / (A1– Ablank)

Substance | binding to gp120(IIIB) (relative affinity Ar)
CD4-M1: His6-tagged linear peptide presenting CD4 residues 22–64 | is recognized by gp120
CD4-M2: His6-tagged cyclic (disulfide) peptide, CD4 residues 22–64, S23C, D63C | strongly enhanced
CD4-M3: CD4 residues 22–64, cyclic, F43A, R58A, R59A, S23C, D63C | largely abrogated; also recorded: complete loss of binding
CD4-M4: His6-tagged linear peptide presenting the CDR2-like loop of CD4, residues 34–48 (His6-IKILGNQGSFLTKGP) | only the longer peptide CD4-M1 is recognized by gp120
CD4-M5: CD4 residues 34–48, cyclic through a disulfide between added cysteines (His6-CIKILGNQGSFLTKGPC; disulfide 1-17 (inferred)) | strongly enhanced
CD4-M6: CD4 residues 34–48, cyclic, F43A | largely abrogated
CD4-M7: CD4 residues 34–48, cyclic, F43-D-Phe (His6-CIKILGNQGS[dF]LTKGPC; disulfide 1-17 (inferred)) | did not bind to gp120

Each substance was assayed on gp120(MN) (assay: not given). Details: CD4-M5 60 µM or sCD4 0.4 µg/mL pre-incubated 10 min with gp120(MN) 0.5 µg/mL; 2 h on X5-coated plate; absorbance at 492 nm; at least twice, each in duplicate.

Substance | enhancement of binding of gp120(MN) to the CD4i antibody X5
CD4-M5: CD4 residues 34–48, cyclic through a disulfide between added cysteines (His6-CIKILGNQGSFLTKGPC; disulfide 1-17 (inferred)) | able to enhance binding of gp120 to the CD4i antibody mAb X5

Reference: publication PMC3511023, “Peptides presenting the binding site of human CD4 for the HIV-1 envelope glycoprotein gp120” (Beilstein Journal of Organic Chemistry, 2012)
